Measured values from patent US8921362B2, “6,7-dialkoxy quinazoline derivatives and methods of treating drug resistant and other tumors” (Natco Pharma Limited, priority 2008, dated 2014).

How the values were obtained:
Experiment in all cases: KinomeScan
Format in all cases: binding
Settings in all cases: read-out: % Ctrl @ 10000 nM
ACVR2B = target: T1, ACVR2B (Homo sapiens, UniProt Q13705)
T1 construct: host or cells: E. coli (BL21-derived), T7 phage lysate
How it was run: (§1)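 In this phage-display binding screen, compound competes with immobilized ligand for the kinase fusion, and bead-bound phage, eluted after washing, is titered by qPCR.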

ERK4 = target: T2, ERK4 (Homo sapiens, UniProt P31152)
T2 construct: purchased Ambit Biosciences Corp; host or cells: T7 phage in E. coli host derived from BL21
How it was run: as §1

[1] = target: T3, RPS6KA6(Kin.Dom.-1-N-terminal) (Homo sapiens, UniProt Q9UK32)
T3 construct: RPS6KA6(Kin.Dom.-1-N-terminal); host or cells: E. coli host derived from BL21, T7 phage display
How it was run: as §1

MAPKAPK5 = target: T4, MAPKAPK5 (Homo sapiens, UniProt Q8IW41)
T4 construct: host or cells: E. coli host derived from the BL21 strain, infected with T7 phage
How it was run: as §1

CDK9 = target: T5, CDK9 (Homo sapiens, UniProt P50750)
T5 construct: host or cells: T7 phage in E. coli host derived from BL21
How it was run: as §1

MST2 = target: T6, MST2 (Homo sapiens, UniProt Q13188)
T6 construct: host or cells: T7 phage grown in E. coli host derived from BL21
How it was run: as §1

PYK2 = target: T7, PYK2 (Homo sapiens, UniProt Q14289)
T7 construct: host or cells: E. coli host derived from BL21, T7 phage display
How it was run: as §1

FER = target: T8, FER (Homo sapiens, UniProt P16591)
T8 construct: host or cells: T7 phage in E. coli host derived from BL21
How it was run: as §1

EPHB3 = target: T9, EPHB3 (Homo sapiens, UniProt P54753)
T9 construct: purchased Ambit Biosciences Corp; host or cells: T7 phage in E. coli host derived from BL21
How it was run: as §1

DDR2 = target: T10, DDR2 (Homo sapiens, UniProt Q16832)
T10 construct: purchased Ambit Biosciences Corp (KinomeScan); host or cells: T7 phage in E. coli host derived from BL21
How it was run: as §1

PKAC-alpha = target: T11, PKAC-alpha (Homo sapiens, UniProt P17612)
T11 construct: host or cells: T7 phage in E. coli host derived from BL21
How it was run: as §1

p38-delta = target: T12, p38-delta (Homo sapiens, UniProt O15264)
T12 construct: host or cells: E. coli host derived from BL21, infected with T7 phage
How it was run: as §1

FLT3(K663Q) = target: T13, FLT3(K663Q) (Homo sapiens, UniProt P36888, K663Q)
T13 construct: host or cells: T7 phage in E. coli host derived from BL21
How it was run: as §1

[2] = target: T14, RPS6KA2(Kin.Dom.-1-N-terminal) (Homo sapiens, UniProt Q15349)
T14 construct: RPS6KA2(Kin.Dom.-1-N-terminal); host or cells: E. coli host derived from BL21, T7 phage display
How it was run: as §1

PRKR = target: T15, PRKR (Homo sapiens, UniProt P19525)
T15 construct: host or cells: T7 phage in E. coli host derived from BL21
How it was run: as §1

[3] = target: T16, JAK1(JH2domain-pseudokinase) (Homo sapiens, UniProt P23458)
T16 construct: JAK1(JH2domain-pseudokinase); host or cells: T7 phage grown in E. coli host derived from BL21
How it was run: as §1

SgK110 = target: T17, SgK110 (Homo sapiens, UniProt P0C264)
T17 construct: host or cells: T7 phage grown in E. coli (BL21-derived)
How it was run: as §1

PAK2 = target: T18, PAK2 (Homo sapiens, UniProt Q13177)
T18 construct: host or cells: E. coli host derived from BL21, infected with T7 phage
How it was run: as §1

ACVR1 = target: T19, ACVR1 (Homo sapiens, UniProt Q04771)
T19 construct: host or cells: E. coli (BL21-derived), T7 phage lysate
How it was run: as §1

EPHA1 = target: T20, EPHA1 (Homo sapiens, UniProt P21709)
T20 construct: purchased Ambit Biosciences Corp; host or cells: T7 phage in E. coli host derived from BL21
How it was run: as §1

CLK1 = target: T21, CLK1 (Homo sapiens, UniProt P49759)
T21 construct: host or cells: T7 phage in E. coli host derived from BL21
How it was run: as §1

ROS1 = target: T22, ROS1 (Homo sapiens, UniProt P08922)
T22 construct: host or cells: E. coli host derived from BL21, T7 phage display
How it was run: as §1

CSNK1A1L = target: T23, CSNK1A1L (Homo sapiens, UniProt Q8N752)
T23 construct: host or cells: T7 phage in E. coli host derived from BL21
How it was run: as §1

MST1R = target: T24, MST1R (Homo sapiens, UniProt Q04912)
T24 construct: host or cells: T7 phage grown in E. coli host derived from BL21
How it was run: as §1

TIE1 = target: T25, TIE1 (Homo sapiens, UniProt P35590)
T25 construct: host or cells: T7 phage grown in E. coli (BL21-derived)
How it was run: as §1

PRKD1 = target: T26, PRKD1 (Homo sapiens, UniProt Q15139)
T26 construct: host or cells: T7 phage in E. coli host derived from BL21
How it was run: as §1

ALK = target: T27, ALK (Homo sapiens, UniProt Q9UM73)
T27 construct: host or cells: E. coli (BL21-derived), T7 phage lysate
How it was run: as §1

PRKCH = target: T28, PRKCH (Homo sapiens, UniProt P24723)
T28 construct: host or cells: T7 phage in E. coli host derived from BL21
How it was run: as §1

PDGFRB = target: T29, PDGFRB (Homo sapiens, UniProt P09619)
T29 construct: host or cells: E. coli host derived from BL21, infected with T7 phage
How it was run: as §1

MKNK2 = target: T30, MKNK2 (Homo sapiens, UniProt Q9HBH9)
T30 construct: host or cells: T7 phage grown in E. coli host derived from BL21
How it was run: as §1

JNK3 = target: T31, JNK3 (Homo sapiens, UniProt P53779)
T31 construct: host or cells: T7 phage grown in E. coli host derived from BL21
How it was run: as §1

AMPK-alpha2 = target: T32, AMPK-alpha2 (Homo sapiens, UniProt P54646)
T32 construct: host or cells: E. coli (BL21-derived), T7 phage lysate
How it was run: as §1

T16 sequence (P23458 583-855 limits assumed): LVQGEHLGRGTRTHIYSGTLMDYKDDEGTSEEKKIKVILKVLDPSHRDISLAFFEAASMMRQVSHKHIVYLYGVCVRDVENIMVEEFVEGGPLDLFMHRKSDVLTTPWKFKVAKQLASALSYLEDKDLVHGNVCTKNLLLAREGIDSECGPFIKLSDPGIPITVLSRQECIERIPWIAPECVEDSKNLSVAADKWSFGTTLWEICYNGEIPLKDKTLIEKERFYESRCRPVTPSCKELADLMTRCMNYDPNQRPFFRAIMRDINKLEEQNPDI
T9 sequence (P54753 34-998): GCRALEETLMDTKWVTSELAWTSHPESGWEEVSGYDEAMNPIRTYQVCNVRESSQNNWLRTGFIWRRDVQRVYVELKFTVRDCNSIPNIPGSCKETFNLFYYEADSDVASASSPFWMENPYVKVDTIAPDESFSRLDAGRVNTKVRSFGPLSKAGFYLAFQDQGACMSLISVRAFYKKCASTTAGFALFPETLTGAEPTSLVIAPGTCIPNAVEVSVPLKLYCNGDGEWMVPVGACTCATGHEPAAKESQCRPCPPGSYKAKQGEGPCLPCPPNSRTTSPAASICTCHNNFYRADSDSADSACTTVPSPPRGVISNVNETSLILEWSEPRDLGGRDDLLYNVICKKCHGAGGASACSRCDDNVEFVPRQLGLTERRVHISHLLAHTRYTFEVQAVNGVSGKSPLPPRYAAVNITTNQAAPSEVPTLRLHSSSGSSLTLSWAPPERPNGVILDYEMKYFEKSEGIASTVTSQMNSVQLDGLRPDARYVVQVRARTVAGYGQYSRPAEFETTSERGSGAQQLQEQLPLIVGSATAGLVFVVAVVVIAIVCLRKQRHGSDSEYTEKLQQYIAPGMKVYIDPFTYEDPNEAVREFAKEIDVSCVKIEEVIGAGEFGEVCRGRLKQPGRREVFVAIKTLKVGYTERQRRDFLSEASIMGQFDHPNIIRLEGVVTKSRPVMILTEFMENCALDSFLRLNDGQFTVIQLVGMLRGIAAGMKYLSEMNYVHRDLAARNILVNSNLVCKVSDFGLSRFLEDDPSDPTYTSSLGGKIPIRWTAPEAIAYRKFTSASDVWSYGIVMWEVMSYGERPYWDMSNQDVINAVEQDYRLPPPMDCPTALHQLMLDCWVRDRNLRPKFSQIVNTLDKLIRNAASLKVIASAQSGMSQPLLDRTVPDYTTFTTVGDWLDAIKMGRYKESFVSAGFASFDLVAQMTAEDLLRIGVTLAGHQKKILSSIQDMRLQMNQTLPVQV
T25 sequence (P35590 22-1138): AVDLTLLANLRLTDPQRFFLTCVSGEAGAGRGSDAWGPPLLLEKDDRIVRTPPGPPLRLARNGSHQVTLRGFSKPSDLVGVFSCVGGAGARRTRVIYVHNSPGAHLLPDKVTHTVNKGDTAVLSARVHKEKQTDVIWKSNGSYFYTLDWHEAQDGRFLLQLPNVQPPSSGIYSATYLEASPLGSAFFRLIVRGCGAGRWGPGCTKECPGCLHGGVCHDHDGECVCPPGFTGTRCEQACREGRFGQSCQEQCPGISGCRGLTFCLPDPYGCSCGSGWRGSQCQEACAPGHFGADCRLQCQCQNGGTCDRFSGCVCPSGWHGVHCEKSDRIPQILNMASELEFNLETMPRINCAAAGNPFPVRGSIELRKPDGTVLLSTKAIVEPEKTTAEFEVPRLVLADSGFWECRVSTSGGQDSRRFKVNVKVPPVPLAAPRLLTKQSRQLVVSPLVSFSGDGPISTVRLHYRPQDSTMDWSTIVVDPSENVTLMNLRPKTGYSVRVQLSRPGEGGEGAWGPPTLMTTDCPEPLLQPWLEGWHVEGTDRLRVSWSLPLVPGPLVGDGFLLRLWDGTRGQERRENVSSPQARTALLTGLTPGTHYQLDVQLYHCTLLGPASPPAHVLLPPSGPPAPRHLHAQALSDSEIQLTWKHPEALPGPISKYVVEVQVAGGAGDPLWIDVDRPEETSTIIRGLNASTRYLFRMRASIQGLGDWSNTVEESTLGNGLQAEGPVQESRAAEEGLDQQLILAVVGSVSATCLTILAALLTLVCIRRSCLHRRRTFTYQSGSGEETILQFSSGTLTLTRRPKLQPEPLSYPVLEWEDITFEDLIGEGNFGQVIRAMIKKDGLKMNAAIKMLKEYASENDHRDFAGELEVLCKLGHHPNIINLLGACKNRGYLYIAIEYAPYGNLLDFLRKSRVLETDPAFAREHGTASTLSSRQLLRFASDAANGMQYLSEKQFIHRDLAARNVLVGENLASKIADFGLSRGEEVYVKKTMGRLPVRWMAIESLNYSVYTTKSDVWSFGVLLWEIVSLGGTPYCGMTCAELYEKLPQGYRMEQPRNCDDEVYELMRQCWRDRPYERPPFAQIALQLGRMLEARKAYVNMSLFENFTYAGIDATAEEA
T3 sequence (Q9UK32 73-330 limits assumed): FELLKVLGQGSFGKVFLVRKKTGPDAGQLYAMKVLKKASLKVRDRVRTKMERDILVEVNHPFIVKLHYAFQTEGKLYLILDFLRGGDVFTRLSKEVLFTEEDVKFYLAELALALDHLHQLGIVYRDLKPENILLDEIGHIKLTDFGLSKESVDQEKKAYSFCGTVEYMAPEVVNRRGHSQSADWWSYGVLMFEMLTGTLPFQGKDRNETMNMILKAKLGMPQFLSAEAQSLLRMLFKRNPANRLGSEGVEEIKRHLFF
T18 sequence (Q13177 whole entry): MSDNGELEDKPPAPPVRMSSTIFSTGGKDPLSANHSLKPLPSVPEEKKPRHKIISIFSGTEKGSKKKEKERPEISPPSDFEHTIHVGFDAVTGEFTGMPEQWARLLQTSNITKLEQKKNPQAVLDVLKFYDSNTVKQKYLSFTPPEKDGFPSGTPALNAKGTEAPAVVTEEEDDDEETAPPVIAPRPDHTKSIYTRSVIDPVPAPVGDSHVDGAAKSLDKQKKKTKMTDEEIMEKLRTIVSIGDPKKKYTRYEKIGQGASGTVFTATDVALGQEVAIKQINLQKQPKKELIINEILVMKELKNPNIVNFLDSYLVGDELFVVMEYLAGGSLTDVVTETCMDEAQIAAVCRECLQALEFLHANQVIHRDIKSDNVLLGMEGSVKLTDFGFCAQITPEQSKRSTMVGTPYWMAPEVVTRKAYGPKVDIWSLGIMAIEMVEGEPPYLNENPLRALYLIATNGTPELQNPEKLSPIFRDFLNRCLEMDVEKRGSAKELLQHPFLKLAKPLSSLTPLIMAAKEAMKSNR
T29 sequence (P09619 33-1106): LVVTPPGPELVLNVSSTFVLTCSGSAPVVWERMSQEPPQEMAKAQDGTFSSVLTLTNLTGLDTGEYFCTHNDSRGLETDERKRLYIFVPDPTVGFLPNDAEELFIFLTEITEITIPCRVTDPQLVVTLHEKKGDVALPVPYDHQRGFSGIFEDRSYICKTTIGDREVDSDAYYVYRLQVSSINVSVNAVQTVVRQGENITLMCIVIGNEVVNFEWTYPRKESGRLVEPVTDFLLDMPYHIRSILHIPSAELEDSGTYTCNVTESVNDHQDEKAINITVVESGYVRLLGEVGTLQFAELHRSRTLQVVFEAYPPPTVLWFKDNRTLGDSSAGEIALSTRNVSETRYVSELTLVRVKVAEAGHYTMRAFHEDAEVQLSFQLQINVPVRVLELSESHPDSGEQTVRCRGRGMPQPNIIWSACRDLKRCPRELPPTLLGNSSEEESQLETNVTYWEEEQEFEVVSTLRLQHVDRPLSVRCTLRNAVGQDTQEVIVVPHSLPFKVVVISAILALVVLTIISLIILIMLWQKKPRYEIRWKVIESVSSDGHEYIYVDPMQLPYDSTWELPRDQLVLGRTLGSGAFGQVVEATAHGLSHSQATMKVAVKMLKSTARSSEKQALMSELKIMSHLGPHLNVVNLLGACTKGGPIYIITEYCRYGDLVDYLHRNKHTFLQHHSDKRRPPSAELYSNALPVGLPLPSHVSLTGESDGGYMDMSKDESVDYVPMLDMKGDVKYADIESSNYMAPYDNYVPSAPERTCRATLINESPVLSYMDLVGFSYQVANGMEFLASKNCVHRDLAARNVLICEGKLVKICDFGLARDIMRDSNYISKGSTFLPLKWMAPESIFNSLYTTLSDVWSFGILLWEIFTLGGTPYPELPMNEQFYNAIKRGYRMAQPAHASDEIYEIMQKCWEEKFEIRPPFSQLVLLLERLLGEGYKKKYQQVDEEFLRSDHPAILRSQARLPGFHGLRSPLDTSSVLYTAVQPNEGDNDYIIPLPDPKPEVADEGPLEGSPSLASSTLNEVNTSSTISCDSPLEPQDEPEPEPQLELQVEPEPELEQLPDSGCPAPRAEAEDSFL
T14 sequence (Q15349 59-318 limits assumed): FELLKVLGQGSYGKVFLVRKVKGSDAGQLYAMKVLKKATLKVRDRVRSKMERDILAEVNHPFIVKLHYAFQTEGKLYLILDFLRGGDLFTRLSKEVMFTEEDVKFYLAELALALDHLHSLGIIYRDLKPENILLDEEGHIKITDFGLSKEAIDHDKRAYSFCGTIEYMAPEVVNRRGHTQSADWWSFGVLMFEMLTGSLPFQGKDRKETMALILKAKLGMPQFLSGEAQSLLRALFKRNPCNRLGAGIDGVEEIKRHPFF
T12 sequence (O15264 whole entry): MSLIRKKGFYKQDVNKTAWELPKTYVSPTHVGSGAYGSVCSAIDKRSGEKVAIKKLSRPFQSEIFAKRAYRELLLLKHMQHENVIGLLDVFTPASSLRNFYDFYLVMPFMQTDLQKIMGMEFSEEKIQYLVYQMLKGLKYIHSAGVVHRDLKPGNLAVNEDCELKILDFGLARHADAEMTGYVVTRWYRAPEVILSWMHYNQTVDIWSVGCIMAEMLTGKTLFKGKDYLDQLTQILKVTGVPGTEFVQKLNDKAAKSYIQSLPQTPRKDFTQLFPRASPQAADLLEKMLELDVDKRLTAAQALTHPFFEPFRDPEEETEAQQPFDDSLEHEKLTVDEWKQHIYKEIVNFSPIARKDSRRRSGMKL

Structure (SMILES): C#Cc1cccc(Nc2ncnc3cc(OC)c(OCCCN4CCOCC4)cc23)c1 [NRC-2694, N-(3-ethynylphenyl)-7-methoxy-6-[3-(4-morpholinyl)propoxy]-4-quinazolinamine]
- remaining binding at 10 µM (ACVR2B): 63%
- remaining binding at 10 µM (ERK4): 3.7%
- remaining binding at 10 µM [1]: 94%
- remaining binding at 10 µM (MAPKAPK5): 79%
- remaining binding at 10 µM (CDK9): 86%
- remaining binding at 10 µM (MST2): 85%
- remaining binding at 10 µM (PYK2): 71%
- remaining binding at 10 µM (FER): 94%
- remaining binding at 10 µM (EPHB3): 75%
- remaining binding at 10 µM (DDR2): 76%
- remaining binding at 10 µM (PKAC-alpha): 100%
- remaining binding at 10 µM (p38-delta): 100%
- remaining binding at 10 µM (FLT3(K663Q)): 56%
- remaining binding at 10 µM [2]: 70%
- remaining binding at 10 µM (PRKR): 51%
- remaining binding at 10 µM [3]: 81%
- remaining binding at 10 µM (SgK110): 83%
- remaining binding at 10 µM (PAK2): 67%
- remaining binding at 10 µM (ACVR1): 61%
- remaining binding at 10 µM (EPHA1): 55%
- remaining binding at 10 µM (CLK1): 31%
- remaining binding at 10 µM (ROS1): 46%
- remaining binding at 10 µM (CSNK1A1L): 44%
- remaining binding at 10 µM (MST1R): 94%
- remaining binding at 10 µM (TIE1): 52%
- remaining binding at 10 µM (PRKD1): 9.6%
- remaining binding at 10 µM (ALK): 10%
- remaining binding at 10 µM (PRKCH): 83%
- remaining binding at 10 µM (PDGFRB): 10%
- remaining binding at 10 µM (MKNK2): 16%
- remaining binding at 10 µM (JNK3): 77%
- remaining binding at 10 µM (AMPK-alpha2): 61%
